Test results reported in patent US20160297763A1, “Heteroaryl hydroxamic acid derivatives and their use in the treatment, amelioration or prevention of a viral disease” (priority 2011, published 2016).
Like-named read-outs stand apart in the source and are kept apart here.

Test system: influenza A virus A/Aichi/2/68 (H3N2)
Test: Cytopathic effect (CPE) assay H3N2
Type: cell-based, influenza A virus (H3N2) on MDCK cells
Conditions: for inhibition at 5 µM: H3N2, activity conc 5 (μM per method); for inhibition at 2 µM: H3N2, activity conc 2 (μM per method)
Method: A possible measure of the […] antiviral activity of the compounds having the formula I or II is the CPE assay disclosed herein. […] In this connection, the reduction in the virus-mediated cytopathic effect (CPE) upon treatment with the compounds was calculated as follows: The cell viability of infected-treated and uninfected-treated cells was determined using an ATP-based cell viability assay (Promega). The response in relative luminescent units (RLU) of infected-untreated samples was subtracted from the response (RLU) of the infected-treated samples and then normalized to the viability of the corresponding uninfected sample resulting in % CPE reduction.
The influenza A virus (IAV) was obtained from American Tissue Culture Collection (A/Aichi/2/68 (H3N2); VR-547). Virus stocks were prepared by propagation of virus on Mardin-Darby canine kidney (MDCK; ATCC CCL-34) cells and infectious titres of virus stocks were determined by the 50% tissue culture infective dose (TCID50) analysis as described in Reed, L. J., and H. Muench. 1938, Am. J. Hyg. 27:493-497.
MDCK cells were seeded in 96-well plates at 2×10^4 cells/well using DMEM/Ham's F-12 (1:1) medium containing 10% foetal bovine serum (FBS), 2 mM L-glutamine and 1 antibiotics (all from PAA). Until infection the cells were incubated for 5 hrs at 37° C., 5.0 CO2 to form a ˜80% confluent monolayer on the bottom of the well. Each test compound was dissolved in DMSO and generally tested at 25 μM and 250 μM. In those cases where the compounds were not soluble at that concentration they were tested at the highest soluble concentration. The compounds were diluted in infection medium (DMEM/Ham's F-12 (1:1) containing 5 μg/ml trypsin, and 1% antibiotics) for a final plate well DMSO concentration of 1%. The virus stock was diluted in infection medium (DMEM/Ham's F-12 (1:1) containing 5 μg/ml Trypsin, 1% DMSO, and 1% antibiotics) to a theoretical multiplicity of infection (MOI) of 0.05.
After removal of the culture medium and one washing step with PBS, virus and compound were added together to the cells. In the wells used for cytotoxicity determination (i.e. in the absence of viral infection), no virus suspension was added. Instead, infection medium was added. Each treatment was conducted in two replicates. After incubation at 37° C., 5% CO2 for 48 hrs, each well was observed microscopically for apparent cytotoxicity, precipitate formation, or other notable abnormalities. Then, cell viability was determined using CellTiter-Glo luminescent cell viability assay (Promega). The supernatant was removed carefully and 65 μl of the reconstituted reagent were added to each well and incubated with gentle shaking for 15 min at room temperature. Then, 60 μl of the solution was transferred to an opaque plate and luminescence (RLU) was measured using Synergy HT plate reader (Biotek).
Relative cell viability values of uninfected-treated versus uninfected-untreated cells were used to evaluate cytotoxicity of the compounds. Substances with a relative viability below 80% at the tested concentration were regarded as cytotoxic and retested at lower concentrations.
Reduction in the virus-mediated cytopathic effect (CPE) upon treatment with the compounds was calculated as follows: The response (RLU) of infected-untreated samples was subtracted from the response (RLU) of the infected-treated samples and then normalized to the viability of the corresponding uninfected sample resulting in % CPE reduction.

[1] = Influenza A virus, H3N2, activity conc 50 (μM per method), read-out: CPE H3N2 reduction (%)
[2] = activity conc 50 (μM per method)
[3] = Influenza A virus, read-out: CPE H3N2 reduction (%)

Structure (SMILES): CN1CCN(c2ccnc(C(=O)N(C)O)c2)CC1
- inhibition at 50 µM [1]: 2.6%

Structure (SMILES): Cl.O=C(NO)c1cc(NS(=O)(=O)Cc2cccc(Cl)c2)ccn1 [drawing 288]
- CPE H3N2 reduction (%) [2]: 2.29%

Structure (SMILES): N/C(=N\O)c1ccc(C(=O)NO)nc1
- inhibition at 50 µM [1]: -4.8%

Structure (SMILES): O=C(c1cc(C2=CCNCC2)ccn1)N(O)Cc1ccccc1
- inhibition at 50 µM [1]: 0.4%

Structure (SMILES): CN(C)C1CCN(c2ccnc(C(=O)N(O)Cc3ccccc3)c2)CC1
- inhibition at 50 µM [1]: 12.3%

Structure (SMILES): C[C@@H]1CN(c2ccnc(C(=O)N(O)Cc3ccccc3)c2)C[C@H](C)O1 [drawing 218]
- inhibition at 50 µM [1]: 10.5%

Structure (SMILES): CN(C)S(=O)(=O)c1cccc(-c2ccnc(C(=O)N(O)Cc3ccccc3)c2)c1 [drawing 233]
- inhibition at 5 µM [3]: -1.8%

Structure (SMILES): O=C(NO)c1cc(-c2ccc(Cl)cc2)ccn1
- inhibition at 5 µM [3]: 26.6%

Structure (SMILES): CON(C)C(=O)c1cccc(C(=O)N(C)OC)n1
- inhibition at 50 µM [1]: -0.3%

Structure (SMILES): O=C(c1cc(N2CCOCC2)ccn1)N(O)Cc1ccccc1 [drawing 241]
- CPE H3N2 reduction (%) [2]: −3.4%

Structure (SMILES): O=C(c1cc(N2CCCCC2)cc[n+]1[O-])N(O)Cc1ccccc1
- inhibition at 5 µM [3]: -1.83%

Structure (SMILES): CCONC(=O)c1ccc(-c2ccccc2)cn1 [drawing 173]
- inhibition at 5 µM [3]: -3%

Structure (SMILES): O=C(c1cc(-c2ccc(Cl)c(Cl)c2)ccn1)N(O)Cc1ccccc1 [drawing 220]
- inhibition at 5 µM [3]: 8.1%

Structure (SMILES): CCONC(=O)c1cc(NCc2cccc(OCc3ccccc3)c2)ccn1
- inhibition at 1 µM (Influenza A virus, H3N2, activity conc 1 (μM per method), read-out: CPE H3N2 reduction (%)): 1.2%

Structure (SMILES): O=C(NO)c1cc(NS(=O)(=O)Cc2ccccc2F)ccn1
- inhibition at 50 µM [1]: -0.5%

Structure (SMILES): NC(=O)c1cccc(-c2ccnc(C(=O)N(O)Cc3ccccc3)c2)c1 [drawing 221]
- inhibition at 5 µM [3]: -2.7%

Structure (SMILES): O=C(NO)c1ccccn1
- inhibition at 50 µM [1]: 3.15%

Structure (SMILES): O=C(c1cc(N2CCNCC2)ccn1)N(O)Cc1ccccc1
- inhibition at 50 µM [1]: -4.5%

Structure (SMILES): O=C(c1cc(C2=CCC3(CC2)OCCO3)ccn1)N(O)Cc1ccccc1
- inhibition at 50 µM [1]: 5.4%

Structure (SMILES): O=C(c1cc(NS(=O)(=O)c2ccccc2)ccn1)N(O)Cc1ccccc1 [drawing 213]
- inhibition at 50 µM [1]: -5.2%

Structure (SMILES): O=C(NO)c1cc(NS(=O)(=O)Cc2ccc(Cl)cc2Cl)ccn1
- inhibition at 50 µM (Influenza A virus, H3N2, read-out: CPE H3N2 reduction (%), activity conc 50 (μM per method)): 60.1%

Structure (SMILES): O=C(NOCc1ccccc1)c1cc(N2CCCCC2)ccn1 [drawing 187]
- inhibition at 5 µM [3]: 1%

Structure (SMILES): O=C(c1cc(N2CCC(F)CC2)ccn1)N(O)Cc1ccccc1
- inhibition at 50 µM [1]: 34%

Structure (SMILES): COC1=CC=C(c2ccnc(C(=O)N(O)Cc3ccccc3)c2)CC1
- inhibition at 2 µM [3]: -2.5%

Structure (SMILES): CCON(C)C(=O)c1cccc(C)n1
- inhibition at 50 µM [1]: -1.9%

Structure (SMILES): CN1CCN(c2ccnc(C(=O)N(O)Cc3ccccc3)c2)CC1
- inhibition at 50 µM [1]: 2.4%

Structure (SMILES): O=C(c1cc(N2CCC3(CC2)OCCO3)ccn1)N(O)Cc1ccccc1 [drawing 235]
- inhibition at 50 µM [1]: 9.5%

Structure (SMILES): CCONC(=O)c1cc(N)ccn1
- inhibition at 50 µM [1]: 10.5%

Structure (SMILES): O=C(c1ccc(N2CCCC2)cn1)N(O)Cc1ccccc1 [drawing 180]
- inhibition at 25 µM (Influenza A virus, H3N2, activity conc 25 (μM per method), read-out: CPE H3N2 reduction (%)): 1%

Structure (SMILES): CC(C)(C)OC(=O)N1C=C(c2ccnc(C(=O)N(O)Cc3ccccc3)c2)CCC1
- inhibition at 2 µM [3]: 3.9%

Structure (SMILES): O=C(NO)c1cc(NS(=O)(=O)Cc2ccccc2)ccn1
- inhibition at 50 µM [1]: 5.1%

Structure (SMILES): O=C(c1cc(N2CCC(N3CCCCC3)CC2)ccn1)N(O)Cc1ccccc1
- inhibition at 50 µM [1]: 18.8%

Structure (SMILES): CC(C)(C)OC(=O)NC1CCN(c2ccnc(C(=O)N(O)Cc3ccccc3)c2)CC1 [drawing 227]
- inhibition at 50 µM [1]: 8.3%

Structure (SMILES): O=C(NO)c1cc(NCc2ccccc2)ccn1
- inhibition at 5 µM [3]: -0.5%

Structure (SMILES): O=C(c1cc(N2CCCCC2)ccn1)N(O)Cc1ccccc1 [drawing 183]
- inhibition at 5 µM [3]: 1.1%

Structure (SMILES): O=C(c1cc(NS(=O)(=O)Cc2cccc(Cl)c2)ccn1)N(O)Cc1ccccc1
- inhibition at 50 µM [1]: 9.5%

Structure (SMILES): O=C(c1cc(N2CCCCC2)ccn1)N(O)Cc1ccccc1 [drawing 197]
- CPE H3N2 reduction (%) (activity conc 5 (μM per method)): 1.1%
